Laboratory results from patent US7968577B2 (Bristol-Myers Squibb Company, priority 2006, dated 2011).

Tests used:
[1] = molecular target: T1, human full-length glucocorticoid receptor (Homo sapiens, UniProt P04150); assay: Glucocorticoid Receptor Binding Assay (II), fluorescence polarization competitor kit (Fluormone GS1); settings: GR Binding Assay (II)
T1 construct: recombinantly expressed human full-length glucocorticoid receptor; purchased PanVera Co., Madison, Wis; P2816
T1 sequence (P04150 1-777): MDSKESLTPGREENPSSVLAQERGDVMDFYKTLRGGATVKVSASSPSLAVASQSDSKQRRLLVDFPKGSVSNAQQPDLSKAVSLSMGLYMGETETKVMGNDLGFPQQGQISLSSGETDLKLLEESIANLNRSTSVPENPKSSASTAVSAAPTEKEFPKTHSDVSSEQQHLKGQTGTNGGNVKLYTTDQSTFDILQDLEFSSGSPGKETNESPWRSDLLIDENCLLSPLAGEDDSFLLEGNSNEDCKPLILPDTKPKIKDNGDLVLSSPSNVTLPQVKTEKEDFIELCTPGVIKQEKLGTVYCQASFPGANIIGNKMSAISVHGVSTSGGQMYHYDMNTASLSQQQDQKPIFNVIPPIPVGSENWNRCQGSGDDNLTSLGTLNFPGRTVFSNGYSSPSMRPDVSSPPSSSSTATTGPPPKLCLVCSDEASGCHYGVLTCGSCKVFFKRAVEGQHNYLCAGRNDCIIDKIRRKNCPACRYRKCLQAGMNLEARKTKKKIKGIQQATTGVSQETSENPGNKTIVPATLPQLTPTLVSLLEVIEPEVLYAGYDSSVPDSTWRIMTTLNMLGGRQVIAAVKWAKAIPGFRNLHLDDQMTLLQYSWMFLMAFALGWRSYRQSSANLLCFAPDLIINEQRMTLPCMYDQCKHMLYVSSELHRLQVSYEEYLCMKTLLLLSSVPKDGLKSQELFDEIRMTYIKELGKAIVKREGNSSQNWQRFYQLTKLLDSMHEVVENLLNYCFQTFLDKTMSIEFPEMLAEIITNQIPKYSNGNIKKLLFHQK
Procedure, shortened: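 Cell lysate with recombinant receptor incubated with 1 nM Fluormone GS1 tracer, with or without test compound, for one hour at room temperature. Binding read as displacement by fluorescence polarization.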

[2] = molecular target: T2, human glucocorticoid receptor (Homo sapiens, UniProt P04150); assay: Glucocorticoid Receptor Binding Assay (I), fluorescence polarization competitor kit (Fluormone GS Red); settings: GR Binding Assay (I)
T2 construct: purified human recombinant full-length glucocorticoid receptor; purchased Invitrogen Part #2893
T2 sequence (P04150 1-777): T1 sequence (P04150 1-777)
Procedure, shortened: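 Fluorescence polarization competition using full-length recombinant human GR (2 nM) and Fluormone GS Red tracer (1 nM). Incubated 2 h at room temperature in the dark. Compounds tested from 8.5 E-05 μM to 5 μM.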

Row | SMILES | Ki [1] [nM] | Ki [2] [nM]
1 | CC(C)(C(=O)Nc1nccs1)C(c1ccc(N2CCOCC2)cc1)c1cccc(F)c1 (single isomer, unassigned) [Example 254, 3-(3-fluorophenyl)-2,2-dimethyl-3-(4-(4-morpholinyl)phenyl)-N-1,3-thiazol-2-ylpropanamide] | 25.8 | 104
2 | CC(C)(C(=O)Nc1nncs1)C(c1ccc(N2CCOCC2)cc1)c1cccc(F)c1 (single isomer, unassigned) [Example 256, 3-(3-fluorophenyl)-2,2-dimethyl-3-(4-(4-morpholinyl)phenyl)-N-1,3,4-thiadiazol-2-ylpropanamide] | 121 | 125
3 | Cc1cccc(C(c2ccc(N3CCOCC3)cc2)C(C)(C)C(=O)Nc2nncs2)c1 (stereo not shown) [Example 235, 2,2-dimethyl-3-(3-methylphenyl)-3-(4-(4-morpholinyl)phenyl)-N-1,3,4-thiadiazol-2-ylpropanamide] | 13.6 | 5.19
4 | CC(C)(C(=O)Nc1nccs1)[C@H](c1ccccc1)c1ccc(O)cc1 [Example 326, (3R)-3-(4-hydroxyphenyl)-2,2-dimethyl-3-phenyl-N-1,3-thiazol-2-ylpropanamide] | 12.9 | 18.7
5 | CC(C)CC(c1ccc(-c2ccccc2)cc1)C(C)(C)C(=O)Nc1nncs1 (stereo not shown) [Example 431, 3-(4-biphenylyl)-2,2,5-trimethyl-N-1,3,4-thiadiazol-2-ylhexanamide] |  | 52.8
6 | CC(C)CC(c1ccc(-c2ccc(Cl)cc2)cc1)C(C)(C)C(=O)Nc1nncs1 (stereo not shown) [Example 432, 3-(4′-chloro-4-biphenylyl)-2,2,5-trimethyl-N-1,3,4-thiadiazol-2-ylhexanamide] |  | 184
7 | CC(C)CC(c1ccc(-c2ccc(-c3ccccc3)cc2)cc1)C(C)(C)C(=O)Nc1nncs1 (stereo not shown) [Example 433, 2,2,5-trimethyl-3-(1,1′:4′,1″-terphenyl-4-yl)-N-1,3,4-thiadiazol-2-ylhexanamide] |  | 12.4
8 | CC(C)CC(c1ccc(-c2cccc(Cl)c2)cc1)C(C)(C)C(=O)Nc1nncs1 (stereo not shown) [Example 434, 3-(3′-chloro-4-biphenylyl)-2,2,5-trimethyl-N-1,3,4-thiadiazol-2-ylhexanamide] |  | 19.4
9 | COc1ccccc1-c1ccc(C(CC(C)C)C(C)(C)C(=O)Nc2nncs2)cc1 (stereo not shown) [Example 435, 3-(2′-methoxy-4-biphenylyl)-2,2,5-trimethyl-N-1,3,4-thiadiazol-2-ylhexanamide] |  | 10.7
10 | CC(C)CC(c1ccc(-c2ccc(O)cc2)cc1)C(C)(C)C(=O)Nc1nncs1 (stereo not shown) [Example 436, 3-(4′-hydroxy-4-biphenylyl)-2,2,5-trimethyl-N-1,3,4-thiadiazol-2-ylhexanamide] |  | 105
11 | CC(C)CC(c1ccc(-c2ccc(OC(F)(F)F)cc2)cc1)C(C)(C)C(=O)Nc1nncs1 (stereo not shown) [Example 437, 2,2,5-trimethyl-N-1,3,4-thiadiazol-2-yl-3-(4′-(trifluoromethoxy)-4-biphenylyl)hexanamide] |  | 5.33
12 | CC(=O)c1ccc(-c2ccc(C(CC(C)C)C(C)(C)C(=O)Nc3nncs3)cc2)cc1 (stereo not shown) [Example 438, 3-(4′-acetyl-4-biphenylyl)-2,2,5-trimethyl-N-1,3,4-thiadiazol-2-ylhexanamide] |  | 12
13 | CC(=O)c1cccc(-c2ccc(C(CC(C)C)C(C)(C)C(=O)Nc3nncs3)cc2)c1 (stereo not shown) [Example 439, 3-(3′-acetyl-4-biphenylyl)-2,2,5-trimethyl-N-1,3,4-thiadiazol-2-ylhexanamide] |  | 20.3
14 | CC(=O)Nc1ccc(-c2ccc(C(CC(C)C)C(C)(C)C(=O)Nc3nncs3)cc2)cc1 (stereo not shown) [Example 440, 3-(4′-acetamido-4-biphenylyl)-2,2,5-trimethyl-N-1,3,4-thiadiazol-2-ylhexanamide] |  | 21.4
15 | CC(C)CC(c1ccc(-c2ccc3c(c2)CCO3)cc1)C(C)(C)C(=O)Nc1nncs1 (stereo not shown) [Example 441, 3-(4-(2,3-dihydro-1-benzofuran-5-yl)phenyl)-2,2,5-trimethyl-N-1,3,4-thiadiazol-2-ylhexanamide] |  | 104
